Reference: US7166622B2, “Substituted phenylsulfonamide inhibitors of beta amyloid production” (Wyeth, priority 2002, dated 2007)
Like-named read-outs stand apart in the source and are kept apart here.

Tests used:
CHO-K1 cells = test: Toxicity in RRA (loss of luciferase signal); conditions: toxicity = loss of signal (<0.75 fold increase)
Protocol: The beta amyloid inhibitory activity of the compounds of the present invention was determined using the Repressor Release Assay (RRA).
“Fold Increase” refers to the amount of luciferase activity (measured in relative light units) over diluent control. “SEM” refers to the standard error of the mean for fold increase.

beta amyloid production = test: Repressor Release Assay (RRA); type: cell-based; conditions: for fold induction at 20 µg/mL / APPI Fold Increase / APPI % of Example #98: Conc 20 μg/ml; for APPI % of Example #98: relative to Example 98
How it was run: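 Read-out is luciferase luminescence (RLU) after 36-48 h duplicate compound exposure of transfected CHO-K1 cells. These cells carry transiently introduced APP-lacI and pRSVO-luc DNA. Diluent control was 25 mM Hepes/1% DMSO; toxicity recorded as binary score (1 non-toxic, 0 toxic).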

[1] = Conc 20 μg/ml, 1=non-toxic, 0=toxic
[2] = luciferase activity (RLU) over diluent control, read-out: APPI Fold Increase
[3] = luciferase activity (RLU) over diluent control
[4] = luciferase activity over diluent control, read-out: APPI Fold Increase

SMILES	(%)APPI Toxicity (CHO-K1 cells; [1])	fold induction at 20 µg/mL (beta amyloid production; [2])	also measured
CC(C)C[C@@H](c1ccccc1)[C@@H](CO)NS(=O)(=O)c1ccc(Cl)cc1 [Example 64, 4-chloro-N-[(1S,2S)-1-(hydroxymethyl)-4-methyl-2-phenylpentyl]benzenesulfonamide]	1 (1=non-toxic)	1.7	
CCCCCC[C@@H](c1ccccc1)[C@@H](CO)NS(=O)(=O)c1ccc(Cl)cc1 [Example 65, 4-chloro-N-[(1S,2S)-1-(hydroxymethyl)-2-phenyloctyl]benzenesulfonamide]	1 (1=non-toxic)	1.9	
CC[C@@H](c1ccco1)[C@@H](CO)NS(=O)(=O)c1ccc(Cl)cc1 [Example 66, 4-chloro -N-[(1S,2R)-2-(2-furyl)-1-(hydroxymethyl)butyl]benzenesulfonamide]	1 (1=non-toxic)	5.5	
CC(C)C[C@@H](c1ccco1)[C@@H](CO)NS(=O)(=O)c1ccc(Cl)cc1 [Example 67, 4-chloro -N-[(1S,2R)-2-(2-furyl)-1-(hydroxymethyl)-4-methylpentyl]benzenesulfonamide]	1 (1=non-toxic)	3.9	
CCCCCC[C@@H](c1ccco1)[C@@H](CO)NS(=O)(=O)c1ccc(Cl)cc1 [Example 68, 4-chloro-N-[(1S,2R)-2-(2-furyl)-1-(hydroxymethyl)octyl]benzenesulfonamide]	1 (1=non-toxic)	2	
CC(C)[C@H](C)[C@@H](CO)NS(=O)(=O)c1ccc(Cl)cc1 [Example 69, 4-chloro-N-[(1S,2S)-1-(hydroxymethyl)-2,3-dimethylbutyl]benzenesulfonamide]	1 (1=non-toxic)	3.1	
CCCCCC[C@@H](C(C)C)[C@@H](CO)NS(=O)(=O)c1ccc(Cl)cc1 [Example 70, 4-chloro-N-[(1S,2S)-1-(hydroxymethyl)-2-isopropyloctyl]benzenesulfonamide]	1 (1=non-toxic)	2	
COc1ccc([C@@H](C)[C@@H](CO)NS(=O)(=O)c2ccc(Br)cc2)cc1 [Example 71, 4-bromo-N-[(1S,2R)-1-(hydroxymethyl)-2-(4-methoxyphenyl)propyl]benzenesulfonamide]	1 (1=non-toxic)	1.9	
CCCCCC[C@@H](C)[C@@H](CO)NS(=O)(=O)c1ccc(Br)cc1 [Example 72, 4-bromo-N-[(1S,2R)-1-(hydroxymethyl)-2-methyloctyl] benzenesulfonamide]	1 (1=non-toxic)		APPI Fold Increase (beta amyloid production; [3]): 3.2; APPI % of Example #98 (beta amyloid production): 76.4%
CC[C@H](CC(C)C)[C@@H](CO)NS(=O)(=O)c1ccc(Br)cc1 [Example 73, 4-bromo-N-[(1S,2R)-2-ethyl-1-(hydroxymethyl)-4-methylpentyl]benzenesulfonamide]	1 (1=non-toxic)	5.4	
CC[C@H](c1ccc(OC)cc1)[C@@H](CO)NS(=O)(=O)c1ccc(Br)cc1 [Example 74, 4-bromo-N-[(1S,2R)-1-(hydroxymethyl)-2-(4-methoxyphenyl)butyl]benzenesulfonamide]	1 (1=non-toxic)	2.5	
CCCCCC[C@@H](CC)[C@@H](CO)NS(=O)(=O)c1ccc(Br)cc1 [Example 75, 4-bromo-N-[(1S,2R)-2-ethyl-1-(hydroxymethyl)octyl]benzenesulfonamide]	1 (1=non-toxic)	4.8	
CCC[C@H](C)[C@@H](CO)NS(=O)(=O)c1ccc(Br)cc1 [Example 76, 4-bromo-N-[(1S,2S)-1-(hydroxymethyl)-2-methylpentyl]benzenesulfonamide]	1 (1=non-toxic)	5.8	
CCC[C@H](CC)[C@@H](CO)NS(=O)(=O)c1ccc(Br)cc1 [Example 77, 4-bromo-N-[(1S,2S)-2-ethyl-1-(hydroxymethyl)pentyl]benzenesulfonamide]	1 (1=non-toxic)	5.9	
CCC[C@H](CC(C)C)[C@@H](CO)NS(=O)(=O)c1ccc(Br)cc1 [Example 78, 4-bromo-N-[(1S,2R)-1-(hydroxymethyl)-4-methyl-2-propylpentyl]benzenesulfonamide]	1 (1=non-toxic)	4.4	
CCCCCC[C@@H](CCC)[C@@H](CO)NS(=O)(=O)c1ccc(Br)cc1 [Example 79, 4-bromo-N-[(1S,2R)-1-(hydroxymethyl)-2-propyloctyl]benzenesulfonamide]	1 (1=non-toxic)	1.5	
CCCCC[C@H](C)[C@@H](CO)NS(=O)(=O)c1ccc(Br)cc1 [Example 80, 4-bromo-N-[(1S,2S)-1-(hydroxymethyl)-2-methylheptyl]benzenesulfonamide]	1 (1=non-toxic)	3.9	

SMILES	(%)APPI Toxicity (CHO-K1 cells; [1])	fold induction at 20 µg/mL (beta amyloid production; [2])	also measured
CCCCC[C@H](CC)[C@@H](CO)NS(=O)(=O)c1ccc(Br)cc1 [Example 81, 4-bromo-N-[(1S,2S)-2-ethyl-1-(hydroxymethyl)heptyl]benzenesulfonamide]	1 (1=non-toxic)	5	
C[C@@H](c1ccccc1)[C@@H](CO)NS(=O)(=O)c1ccc(Br)cc1 [Example 82, 4-bromo-N-[(1S,2S)-1-(hydroxymethyl)-2-phenylpropyl]benzenesulfonamide]	1 (1=non-toxic)	2.6	
CC[C@@H](c1ccccc1)[C@@H](CO)NS(=O)(=O)c1ccc(Br)cc1 [Example 83, 4-bromo-N-[(1S,2S)-1-(hydroxymethyl)-2-phenylbutyl]benzenesulfonamide]	1 (1=non-toxic)	3.4	
C[C@@H](c1ccco1)[C@@H](CO)NS(=O)(=O)c1ccc(Br)cc1 [Example 84, 4-bromo-N-[(1S,2R)-2-(2-furyl)-1-(hydroxymethyl)propyl]benzenesulfonamide]	1 (1=non-toxic)	3.4	
CC[C@@H](c1ccco1)[C@@H](CO)NS(=O)(=O)c1ccc(Br)cc1 [Example 85, 4-bromo-N-[(1S,2R)-2-(2-furyl)-1-(hydroxymethyl)butyl]benzenesulfonamide]	1 (1=non-toxic)	3.4	
CC(C)C[C@@H](c1ccco1)[C@@H](CO)NS(=O)(=O)c1ccc(Br)cc1 [Example 86, 4-bromo-N-[(1S,2R)-2-(2-furyl)-1-(hydroxymethyl)-4-methylpentyl]benzenesulfonamide]	1 (1=non-toxic)	1.6	
CC(C)C[C@@H](C(C)C)[C@@H](CO)NS(=O)(=O)c1ccc(Br)cc1 [Example 87, 4-bromo-N-[(1S,2S)-1-(hydroxymethyl)-2-isopropyl-4-methylpentyl]benzenesulfonamide]	1 (1=non-toxic)	8.8	
CCCCCC[C@H](CC)[C@@H](CO)NS(=O)(=O)c1ccc(Cl)cc1 [Example 88, 4-Chloro-N-[(1 S,2S)-2-ethyl-1-(hydroxymethyl)octyl]benzenesulfonamide]	1 (1=non-toxic)	6.4	
CCCCCC[C@@H](CC)[C@@H](CO)NS(=O)(=O)c1ccc(Cl)cc1 [Example 89, 4-chloro-N-[(1S,2R)-2-ethyl-1-(hydroxymethyl)octyl] benzenesulfonamide]	1 (1=non-toxic)		APPI Fold Increase (beta amyloid production; [3]): 22.4; APPI % of Example #98 (beta amyloid production): 97.9%
CC[C@H](C)[C@@H](CO)N(C)S(=O)(=O)c1ccc(Cl)cc1 [Example 90, 4-Chloro-N-methyl-N-[(1S,2S)-1-(hydroxymethyl)-2-methylbutyl]benzenesulfonamide]			(%)APPI Toxicity (CHO-K1 cells; Conc 20 μg/ml): 1 (1=non-toxic); fold induction at 20 µg/mL (beta amyloid production; [4]): 1.6
CC[C@H](C)[C@@H](CO)NS(=O)(=O)c1ccc(Cl)cc1 [Example 91, 4-Chloro-N-[(1S,2S)-1-(hydroxymethyl)-2-methylbutyl]benzenesulfonamide]			(%)APPI Toxicity (CHO-K1 cells; Conc 3 μg/ml): 1 (1=non-toxic); (%)APPI Toxicity (CHO-K1 cells; Conc 10 μg/ml): 1 (1=non-toxic); (%)APPI Toxicity (CHO-K1 cells; Conc 20 μg/ml): 1 (1=non-toxic); fold induction at 3 µg/mL (beta amyloid production; Conc 3 μg/ml, luciferase activity over diluent control, read-out: APPI Fold Increase): 1.71; fold induction at 10 µg/mL (beta amyloid production; Conc 10 μg/ml, luciferase activity over diluent control, read-out: APPI Fold Increase): 2.38
CC(C)C[C@@H](CO)NS(=O)(=O)c1ccc(Cl)cc1 [Example 92, 4-chloro-N-[(1S)-1-(hydroxymethyl)-3-methylbutyl]benzenesulfonamide]			(%)APPI Toxicity (CHO-K1 cells; Conc 20 μg/ml): 1 (1=non-toxic); fold induction at 20 µg/mL (beta amyloid production; [4]): 1.7
C[C@@H](NS(=O)(=O)c1ccc(Cl)cc1)[C@@H](O)c1ccccc1 [Example 93, 4-chloro-N-[(1R,2S)-2-hydroxy-1-methyl-2-phenylethyl]benzenesulfonamide]			(%)APPI Toxicity (CHO-K1 cells; Conc 20 μg/ml): 1 (1=non-toxic); fold induction at 20 µg/mL (beta amyloid production; [4]): 1.5
O=S(=O)(NC1(CO)CCCC1)c1ccc(Br)cc1 [Example 94, 4-bromo-N-[1-(hydroxymethyl)cyclopentyl]benzenesulfonamide]			(%)APPI Toxicity (CHO-K1 cells; Conc 20 μg/ml): 1 (1=non-toxic); fold induction at 20 µg/mL (beta amyloid production; [4]): 2.5
O=S(=O)(N[C@H](CO)CC1CCCCC1)c1ccc(Cl)cc1 [Example 95, 4-chloro-N-[(1S)-2-cyclohexyl-1-(hydroxymethyl)ethyl]benzenesulfonamide]			(%)APPI Toxicity (CHO-K1 cells; Conc 20 μg/ml): 1 (1=non-toxic); fold induction at 20 µg/mL (beta amyloid production; [4]): 1.6
O=S(=O)(N[C@H](CO)Cc1ccc(OCc2ccccc2)cc1)c1ccc(Cl)cc1 [Example 96, N-{(1S)-1-[4-(benzyloxy)benzyl]-2-hydroxyethyl}-4-chlorobenzenesulfonamide]			(%)APPI Toxicity (CHO-K1 cells; Conc 20 μg/ml): 1 (1=non-toxic); fold induction at 20 µg/mL (beta amyloid production; [4]): 1.5
